Laboratory results taken from paper PMC6980506, “Comparative pharmacokinetics and pharmacodynamics of the advanced Retinol-Binding Protein 4 antagonist in dog and cynomolgus monkey” (PLoS ONE, 2020).

Legend:
[1] = Plasma protein binding by equilibrium dialysis, dog plasma; format: in vitro ADME; conditions: pH 7.4, average and standard deviation, read-out: %PPB, plasma protein binding (converted)
Procedure: In vitro ADME tests were conducted at AMRI, Albany, NY.

[2] = Metabolic clearance in human hepatocytes; format: in vitro ADME; conditions: cryopreserved hepatocytes, read-out: Hepatocyte CLint (intrinsic clearance)
Procedure: All measurements were done in duplicate. Testosterone and 7-hydroxycoumarin were used as positive controls. Pooled cryopreserved human hepatocytes, cryopreserved male beagle dog hepatocytes, and cryopreserved male cynomolgus monkey hepatocytes were obtained from BioIVT (Baltimore, MD). Compound at 1 μM was incubated with 1 x 10^6 cells. Final DMSO concentration in the reaction mix was 0.1%. Aliquots (100 μL) of reaction mixtures were removed from the incubation plate at different timepoints and mixed with 150 μL of ice-cold acetonitrile. After incubation on ice for 15 min, the samples were centrifuged (3,600 rpm, 10 min, 4°C) to precipitate protein. The supernatants were diluted 1:1 (v/v) with water containing internal standards and subjected to the LC/MS analysis. Hepatic clearance was calculated using the well-stirred liver model

- fraction unbound at 4 h, 1 μM [1]: 0.003
- hepatocyte CLint at 1 μM [2]: < 0.7 µL/min/1e6 cells
Compound: Cc1cc(C(=O)O)nc(N2C[C@H]3C[C@@H](c4ccccc4C(F)(F)F)C[C@H]3C2)n1 [BPN-14136]
